Source: patent EP0664704B1, “USE OF DOPAMINE AGONISTS TO ACTIVATE GAMMA-[…]” (SCHERING AKTIENGESELLSCHAFT, priority 1992, dated 1994)

Assays:
[1] = Six-month continuous s.c. infusion at extremely high dose in monkeys; format: in vivo, Affen; conditions: monkey, 1 mg/kg/Tag s.c. infused continuously over 6 months (10-fold maximal human dose)
[2] = test system: TNF-α; test: PHA-stimulated TNF-α release in blood of patients treated with subcutaneous lisuride, ELISA of supernatant; format: in vivo, Patienten
Description: (§1) Wir untersuchten die mitogen-induzierte Zytokinfreisetzung von 18 Patienten, die wegen M. Parkinson (n=13) oder Dystonie (n=5) mit subkutanem Lisurid behandelt wurden. 18 Patienten wurden mit 11 gesunden altersgleichen Kontrollen verglichen. Nach mitogener Stimulation mit 50 µl Phythämagglutinin (PHA) (5 µg/ml) über 24 h (TNF-α) bzw. 72h (IFN-γ) wurden TNF-α und IFN-γ im Überstand mit einem Elisa Assay (Gallati 1987) bestimmt: Da die Daten nicht normal verteilt sind, wurde der Mann-Whitney-Test zur Analyse der Gruppenmittelwerte gerechnet. Es fanden sich folgende Ergebnisse:
(§2) Es wurde dieselbe Lisurid-Gruppe (n=18) wie o.a. mit zwei Gruppen gesunder Freiwilliger verglichen: Einer Gruppe junger (Alter unter 50 Jahre) und mit einer Gruppe älterer Gesunder (Alter über 65 Jahre). Die Zytokinmessung und statistische Auswertung erfolgte wie oben erwähnt. […] Dies legt den Schluß nahe, daß die alterskorreliert abnehmende IFN-γ und TNF-α Produktion durch dopaminerge Therapie antagonisiert werden kann.
(§3) Den Daten ist zu entnehmen, daß durch die Behandlung mit Lisurid nach Stimulation eine vermehrte Freisetzung von IFN-γ und TNF-α erfolgt. Die Freisetzung der Cytokine ist erst in vitro in einer Kurzzeit-Kultur des Vollblutes entstanden. In der Kontrollgruppe ohne PHA Zugabe ließ sich kein IFN-γ nachweisen. […]

[3] = test system: Tumoren; test: Two-year treatment of rodents: tumour frequency and severity, survival; format: in vivo, Mäusen und Ratten; conditions: male and female mice and rats, various doses over 2 years; for Häufigkeit und Schwere von verschiedenen Tumoren: partly dose-dependent, leukaemias, lymphomas, tumours of mammae, pituitary, ovaries
Text: In vivo-Untersuchungen an Nager-Gruppen von männlichen und weiblichen Mäusen und Ratten wurden mit verschiedenen Dosen von Lisurid und Tergurid über 2 Jahre behandelt. […] Dies läßt eine therapeutisch erwünschte lokale Freisetzung dieser Faktoren bei niederer Dosierung von Dopaminagonisten erwarten, die erst bei excessiver Dosierung zur Ausschwemmung ins Blut gelangt und damit die Nebenwirkung einer direkten IFN-γ-Anwendung bewirkt.

[4] = test system: Zytokin-Freisetzung; test: In vitro cytokine release in whole-blood assays co-incubated with lisuride and PHA; format: cell-based, gesunden jungen Freiwilligen; conditions: whole blood of 10 healthy young volunteers; without lisuride vs low, therapeutic and toxic lisuride concentration, together with PHA
Description: as §1
(§4) Von 10 gesunden jungen Freiwilligen wurden Vollblut-Assays (s.o.) mit 4 verschiedenen Konzentrationen von Lisurid zusammen mit dem Stimulans (PHA) inkubiert. […] Dies läßt vermuten, daß es sich bei den Patientendaten nicht um kurzzeitige Effekte der Substanz auf die immunkompetenten Zellen (vor allem T-Lymphozyten und NK-Zellen) handelt. Vielmehr werden über Rezeptor/postrezeptorische Mechanismen Effekte auf die Freisetzung und/oder Synthese von IFN-γ und anderen Faktoren vermittelt. Auch ein direkter oder indirekter Effekt auf das Genom ist möglich. Für die therapeutische Anwendung erwünscht ist die beobachtete Anreicherung von Dopaminagonisten in den Membranen von weißen Blutzellen, wie sie im Falle von Lisurid durch die UV-Fluoreszenz dieses Moleküls nachweisbar ist.

[5] = test system: Membranen von weißen Blutzellen; test: Accumulation in membranes of white blood cells, detected by UV fluorescence; conditions: UV fluorescence of the molecule
Text: as §4

[6] = test system: IFN-γ; test: PHA-stimulated IFN-γ release in blood of patients treated with subcutaneous lisuride, ELISA of supernatant; format: in vivo, Patienten
Description: as §1, §2, §3

[7] = lisuride group (n=18, median age 61) vs young healthy group (under 50 years) and older healthy group (over 65 years)

| SMILES | Befunde bei extrem hoher parenteraler Applikation [1] | α-TNF Produktion nach mitogener Stimulation [2, 7] | TNF-α Freisetzung ([2]; lisuride-treated patients (n=18) vs 11 healthy age-matched controls, PHA 24 h, Mann-Whitney p=0.055) | Anteil überlebender Tiere [3] | Häufigkeit und Schwere von verschiedenen Tumoren [3] | Zytokin-Freisetzung bei Koinkubation mit Lisurid [4] | Anreicherung in den Membranen von weißen Blutzellen [5] | IFN-γ Produktion nach mitogener Stimulation [6, 7] | IFN-γ Freisetzung nach PHA-Stimulation ([6]; lisuride-treated patients (n=18, M. Parkinson or Dystonie) vs 11 healthy age-matched controls, PHA 72 h, Mann-Whitney p=0.039) |
| --- | --- | --- | --- | --- | --- | --- | --- | --- | --- |
| CCN(CC)C(=O)NC1C=C2c3cccc4[nH]cc(c34)CC2N(C)C1 (centres unmarked) [Lisurid] | wie sie für eine Überproduktion oder Freisetzung von IFN-γ und vergleichbarer Substanzen typisch sind | signifikant erhöht | deutlich erhöht | signifikante Erhöhung | signifikante Reduktion | keine Unterschiede | nachweisbar | signifikant erhöht | signifikant erhöht |
| CCN(CC)C(=O)N[C@H]1C[C@@H]2c3cccc4[nH]cc(c34)C[C@H]2N(C)C1 [Tergurid] |  |  |  | signifikante Erhöhung | signifikante Reduktion |  |  |  |  |
